Test results published in patent US10787450B2 (BRISTOL-MYERS SQUIBB COMPANY, priority 2016, dated 2020).
Structures can show the parent of a compound that is named as a salt.

The compounds below were run against ROCK2 (Homo sapiens (Human), UniProt O75116) (assay: ROCK2 kinase inhibition assay (FITC peptide substrate, LABCHIP 3000 Reader)). Conditions: 5 μM ATP, 1.5 μM peptide substrate.
Type: biochemical
Procedure, shortened: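 IC50 derived by curve fitting of dose-response inhibition, read as separation of phosphorylated from unphosphorylated FITC peptide (1.5 μM) after EDTA stop. Buffer: HEPES pH 7.5, MgCl2, Brij-35, DTT; ATP 5 μM; final DMSO <2%; reaction initiated by Rho kinase addition.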

Chain of ROCK2 (O75116 whole entry, species assumed): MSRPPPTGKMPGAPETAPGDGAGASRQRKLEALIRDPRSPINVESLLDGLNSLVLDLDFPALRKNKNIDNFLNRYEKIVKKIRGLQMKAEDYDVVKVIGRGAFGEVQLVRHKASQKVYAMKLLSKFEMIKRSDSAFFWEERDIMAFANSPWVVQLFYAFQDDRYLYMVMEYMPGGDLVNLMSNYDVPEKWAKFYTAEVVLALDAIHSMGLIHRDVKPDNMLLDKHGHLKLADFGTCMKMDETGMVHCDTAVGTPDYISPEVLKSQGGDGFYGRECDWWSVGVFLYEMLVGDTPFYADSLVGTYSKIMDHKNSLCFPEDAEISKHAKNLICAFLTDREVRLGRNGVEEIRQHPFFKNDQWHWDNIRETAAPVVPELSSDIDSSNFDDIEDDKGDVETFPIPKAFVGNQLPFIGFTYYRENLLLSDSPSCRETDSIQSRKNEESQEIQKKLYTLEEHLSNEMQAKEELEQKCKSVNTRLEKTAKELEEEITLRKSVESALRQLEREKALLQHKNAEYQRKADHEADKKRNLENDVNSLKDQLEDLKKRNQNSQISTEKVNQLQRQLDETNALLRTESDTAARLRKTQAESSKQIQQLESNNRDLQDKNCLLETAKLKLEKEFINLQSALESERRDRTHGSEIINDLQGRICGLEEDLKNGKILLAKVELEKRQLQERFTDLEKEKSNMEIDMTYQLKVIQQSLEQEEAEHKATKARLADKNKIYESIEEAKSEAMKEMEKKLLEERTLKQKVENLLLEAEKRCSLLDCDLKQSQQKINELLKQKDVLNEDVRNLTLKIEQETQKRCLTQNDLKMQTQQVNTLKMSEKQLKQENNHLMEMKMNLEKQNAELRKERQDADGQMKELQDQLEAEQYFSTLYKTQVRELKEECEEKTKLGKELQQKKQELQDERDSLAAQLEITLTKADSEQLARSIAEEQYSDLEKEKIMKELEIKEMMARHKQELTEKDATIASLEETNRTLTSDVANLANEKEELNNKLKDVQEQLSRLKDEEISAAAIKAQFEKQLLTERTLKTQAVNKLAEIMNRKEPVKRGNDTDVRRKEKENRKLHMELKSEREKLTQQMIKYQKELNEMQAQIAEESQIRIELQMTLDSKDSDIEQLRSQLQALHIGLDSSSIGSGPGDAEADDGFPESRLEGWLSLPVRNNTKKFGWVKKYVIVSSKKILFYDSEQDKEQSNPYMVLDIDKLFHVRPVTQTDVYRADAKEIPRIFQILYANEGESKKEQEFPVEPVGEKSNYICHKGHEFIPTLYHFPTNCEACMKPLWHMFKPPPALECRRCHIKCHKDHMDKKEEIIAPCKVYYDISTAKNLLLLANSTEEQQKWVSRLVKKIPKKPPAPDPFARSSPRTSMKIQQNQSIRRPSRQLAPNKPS

IC50, 250 to 3000 nM:
COC(=O)N1CC2(C1)CN(c1ccc(-c3cn[nH]c3)cc1)C(=O)C2Nc1cccc(OC)c1 (stereo not drawn) [Example 248, methyl 6-(4-(1H-pyrazol-4-yl)phenyl)-8-((3-methoxy-phenyl)amino)-7-oxo-2,6-diazaspiro [3.4]octane-2-carboxylate]

IC50, 30 to 250 nM:
CC(=O)N1CCC2(CC1)CN(c1ccc(-c3cn[nH]c3)cc1)C(=O)N2Cc1ccc(F)cc1F [Example 81, 3-(4-(1H-pyrazol-4-yl)phenyl)-8-acetyl-1-(2,4-difluorobenzyl)-1,3,8-triazaspiro[4.5]decan-2-one]

IC50, 3 to 30 nM:
COc1cccc(CN2C(=O)N(c3ccc(-c4cn[nH]c4)c(C)n3)CC23CCNCC3)c1 [Example 74, 1-(3-methoxybenzyl)-3-(6-methyl-5-(1H-pyrazol-4-yl)pyridin-2-yl)-1,3,8-triazaspiro[4.5]decan-2-one]
CCc1cc(N2CC3(CC3)N(Cc3cc(F)cc(OC)c3)C2=O)ccc1-c1cn[nH]c1 [Example 4, 6-(3-ethyl-4-(1H-pyrazol-4-yl)phenyl)-4-(3-fluoro-5-methoxybenzyl)-4,6-diazaspiro[2.4]heptan-5-one]
O=C1N(c2ccc(-c3cn[nH]c3)cc2)CC2(CCNCC2)N1Cc1cc(F)cc(F)c1 [Example 68]

IC50, < 3 nM:
CCc1nc(N2CC3(CCN(C(C)=O)CC3)N(Cc3cccc(OC)c3)C2=O)ccc1-c1cn[nH]c1 [Example 88, 8-acetyl-3-(6-ethyl-5-(1H-pyrazol-4-yl)pyridin-2-yl)-1-(3-methoxybenzyl)-1,3,8-triazaspiro[4.5]decan-2-one]
COc1cccc(CN2C(=O)N(c3ccc(-c4cn[nH]c4)cc3)CC23CCN(C(C)=O)CC3)c1 [Example 76, 3-(4-(1H-pyrazol-4-yl)phenyl)-8-acetyl-1-(3-methoxybenzyl)-1,3,8-triazaspiro[4.5]decan-2-one]
CCc1nc(N2CC3(CCN(C(=O)OC)CC3)N(Cc3cccc(F)c3C)C2=O)ccc1-c1cn[nH]c1 [Example 104, methyl 3-(6-ethyl-5-(1H-pyrazol-4-yl)pyridin-2-yl)-1-(3-fluoro-2-methylbenzyl)-2-oxo-1,3,8-triazaspiro[4.5]decane-8-carboxylate]
CCc1nc(N2CC3(CCN(C(=O)C4CCCO4)CC3)N(Cc3cccc(OC)c3)C2=O)ccc1-c1cn[nH]c1 (stereo not drawn) [Example 207, 3-(6-ethyl-5-(1H-pyrazol-4-yl)pyridin-2-yl)-1-(3-methoxybenzyl)-8-(tetrahydrofuran-2-carbonyl)-1,3,8-triazaspiro[4.5]decan-2-one]
O=C(NC1CCC1)c1cccc(CN2C(=O)N(c3ccc(-c4cn[nH]c4)cc3)CC23CCOCC3)c1 [Example 33, 3-((3-(4-(1H-pyrazol-4-yl)phenyl)-2-oxo-8-oxa-1,3-diazaspiro[4.5]decan-1-yl)methyl)-N-cyclobutylbenzamide]
COc1cccc(CN2C(=O)N(c3ccc(-c4cn[nH]c4)cc3)CC23CCN(CC2CC2)CC3)c1 [Example 115, 3-(4-(1H-pyrazol-4-yl)phenyl)-8-(cyclopropylmethyl)-1-(3-methoxybenzyl)-1,3,8-triazaspiro[4.5]decan-2-one]
COc1cc(F)cc(CN2C(=O)N(c3ccc(-c4cn[nH]c4)cc3)CC23CCN(C(=O)C2(C)COC2)CC3)c1 [Example 193, 33-(4-(1H-pyrazol-4-yl)phenyl)-1-(3-fluoro-5-methoxybenzyl)-8-(3-methyloxetane-3-carbonyl)-1,3,8-triazaspiro[4.5]decan-2-one]
COc1cccc(CN2C(=O)N(c3ccc(-c4cn[nH]c4)cc3)CC23CCN(S(C)(=O)=O)CC3)c1 [Example 234, 3-(4-(1H-pyrazol-4-yl)phenyl)-1-(3-methoxybenzyl)-8-(methylsulfonyl)-1,3,8-triazaspiro[4.5]decan-2-one]
COc1cc(F)cc(CN2C(=O)N(c3ccc(-c4cn[nH]c4)cc3)CC23CC3)c1 [Example 8, 6-(4-(1H-pyrazol-4-yl)phenyl)-4-(3-fluoro-5-methoxybenzyl)-4,6-diazaspiro[2.4]heptan-5-one]
COCC(=O)N1CCC2(CC1)CN(c1ccc(-c3cn[nH]c3)c(OC)n1)C(=O)N2Cc1cccc(F)c1C [Example 226, 1-(3-fluoro-2-methylbenzyl)-3-(6-methoxy-5-(1H-pyrazol-4-yl)pyridin-2-yl)-8-(2-methoxyacetyl)-1,3,8-triazaspiro[4.5]decan-2-one]
COc1nc(N2CC3(CCN(C(=O)CCN4CCCC4=O)CC3)N(Cc3cccc(F)c3C)C2=O)ccc1-c1cn[nH]c1 [Example 227, 1-(3-fluoro-2-methylbenzyl)-3-(6-methoxy-5-(1H-pyrazol-4-yl)pyridin-2-yl)-8-(3-(2-oxopyrrolidin-1-yl)propanoyl)-1,3,8-triazaspiro[4.5]decan-2-one]
COc1nc(N2CC3(CCN(CC(C)O)CC3)N(Cc3cccc(F)c3C)C2=O)ccc1-c1cn[nH]c1 (stereo not drawn) [Example 166, 1-(3-fluoro-2-methylbenzyl)-8-(2-hydroxypropyl)-3-(6-methoxy-5-(1H-pyrazol-4-yl)pyridin-2-yl)-1,3,8-triazaspiro[4.5]decan-2-one]
COc1cccc(CN2C(=O)N(c3ccc(-c4cn[nH]c4)cc3)CC23CCN(CCC(C)C)CC3)c1 [Example 117, 3-(4-(1H-pyrazol-4-yl)phenyl)-8-isopentyl-1-(3-methoxybenzyl)-1,3,8-triazaspiro[4.5]decan-2-one]
COc1cccc(CN2C(=O)N(c3ccc(-c4cn[nH]c4)cc3)CC23CCN(CC2CCC2)CC3)c1 [Example 232, 3-(4-(1H-pyrazol-4-yl)phenyl)-8-(cyclobutyl-methyl)-1-(3-methoxy-benzyl)-1,3,8-triazaspiro [4.5]decan-2-one]
COc1cccc(CN2C(=O)N(c3ccc(-c4cn[nH]c4)cc3)CC23CC3)c1 [Example 1, 6-(4-(1H-pyrazol-4-yl)phenyl)-4-(3-methoxybenzyl)-4,6-diazaspiro[2.4]heptan-5-one]
COc1cccc(CN2C(=O)N(c3ccc(-c4cn[nH]c4)cc3)CC23CCN(C(=O)C2CCC(F)(F)CC2)CC3)c1 [Example 171, 3-(4-(1H-pyrazol-4-yl)phenyl)-8-(4,4-difluorocyclohexanecarbonyl)-1-(3-methoxybenzyl)-1,3,8-triazaspiro[4.5]decan-2-one]
COc1cccc(CN2C(=O)N(c3ccc(-c4cn[nH]c4)cc3)CC23CCN(C(=O)C2CCC(F)(F)C2)CC3)c1 (stereo not drawn) [Example 175, 3-(4-(1H-pyrazol-4-yl)phenyl)-8-(3,3-difluorocyclopentane-carbonyl)-1-(3-methoxybenzyl)-1,3,8-triazaspiro[4.5]decan-2-one]
CCc1nc(N2CC3(CCN(C(=O)CO)CC3)N(Cc3cccc(F)c3C)C2=O)ccc1-c1cn[nH]c1 [Example 181, 3-(6-ethyl-5-(1H-pyrazol-4-yl)pyridin-2-yl)-1-(3-fluoro-2-methylbenzyl)-8-(2-hydroxyacetyl)-1,3,8-triazaspiro[4.5]decan-2-one]
COc1cccc(CN2C(=O)N(c3ccc(-c4cn[nH]c4)cc3)CC23CCN(C(=O)C2CCOCC2)CC3)c1 [Example 173, 3-(4-(1H-pyrazol-4-yl)phenyl)-1-(3-methoxybenzyl)-8-(tetrahydro-2H-pyran-4-carbonyl)-1,3,8-triazaspiro[4.5]decan-2-one, TFA]
